Experimental data reported in patent US20100041597A1, “PEPTIDES TARGETED TO PROTEIN KINASE C ISOFORMS AND USES THEREOF” (priority 2005, published 2010).

Assays:
PKC-ζ = molecular target: T1, PKC-ζ (Homo sapiens, UniProt Q05513); test: Competitive binding assay using cell extracts (Western blot); set-up: cytoplasmic extracts from different cell lines expressing appropriate PKC isoforms; endogenous in cells; host or cells: MDAMB231, LnCAP, Du145, H661, CCD16Lu (human, from ATCC); key: —: no detectable affinity; Low to very low affinity at 10X or 20X or both PRE concentrations in at least one cell line in the cell extract assay; Low affinity in purified isoform assay.; Moderate affinity at 10X or 20X or both PRE concentrations in at least one cell line in the cell extract assay.; High affinity at 10X or 20X or both PRE concentrations in at least one cell line in the cell extract assay; High affinity in purified isoform assay; conditions: Cell extract; PRE at 10X, 20X antibody concentration; Table 20
T1 sequence (Q05513 1-592): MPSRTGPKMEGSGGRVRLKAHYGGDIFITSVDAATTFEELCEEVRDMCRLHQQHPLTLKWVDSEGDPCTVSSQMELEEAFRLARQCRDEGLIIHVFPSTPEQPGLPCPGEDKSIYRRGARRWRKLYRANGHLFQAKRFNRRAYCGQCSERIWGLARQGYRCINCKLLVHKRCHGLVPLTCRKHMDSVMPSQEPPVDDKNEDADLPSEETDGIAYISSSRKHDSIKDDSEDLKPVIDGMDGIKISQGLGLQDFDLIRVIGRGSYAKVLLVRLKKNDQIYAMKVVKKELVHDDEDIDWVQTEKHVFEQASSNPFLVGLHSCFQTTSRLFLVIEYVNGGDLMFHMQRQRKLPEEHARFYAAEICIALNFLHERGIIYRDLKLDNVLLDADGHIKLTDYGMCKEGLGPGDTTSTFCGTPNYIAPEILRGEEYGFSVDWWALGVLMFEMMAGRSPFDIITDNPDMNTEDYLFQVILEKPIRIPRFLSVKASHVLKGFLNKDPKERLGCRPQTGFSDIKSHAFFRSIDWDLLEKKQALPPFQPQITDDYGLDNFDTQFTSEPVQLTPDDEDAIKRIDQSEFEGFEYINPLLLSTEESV
Description: (§1) Binding efficiency and specificity of the peptides PRE 2, 3, 4, 5, 6, 7, 8, 9, 10, 11, 12 and 13 (see Table 3) was also tested using cytoplasmic extracts from different cell lines expressing appropriate PKC isoforms as described for Example 1. Briefly, the protein cytoplasmic extracts were separated by electrophoresis and transferred onto nitrocellulose membranes by standard Western blotting procedures. The bands on the Western blots were detected with matching primary antibodies and alkaline phosphatase conjugated secondary antibody. The bands were then scanned and the relative density measurements obtained.
(§2) This procedure to assess the binding characteristics of the PREs is based on competition binding of the PRE with the primary anti-isoform PKC specific antibodies. The lower the measured band density, the greater the binding of the PRE to the PKC isoform. The PREs were added at 10 and 20 times (10×, 20×) the primary antibody concentration, according to classical competition between antigenic peptide and primary antibody. The following cell lines (obtained from the ATCC) were used: H661—NCI human lung carcinoma NSCLC; MDAMB231—human highly invasive breast cancer cell line from pleural effusion; LS180—human colon adenocarcinoma; LnCAP—human prostate adenocarcinoma; CCD16Lu—human lung fibroblasts; Du145—human prostate carcinoma brain metastasis, and T24—human bladder carcinoma.
(§3) In these cases, the 20× band density figures relative to control and 10× values were reliable.

PKC-βII = test: as above; set-up: species or system human; key: —: no detectable affinity; Low to very low affinity at 10X or 20X or both PRE concentrations in at least one cell line in the cell extract assay; Low affinity in purified isoform assay.; Moderate affinity at 10X or 20X or both PRE concentrations in at least one cell line in the cell extract assay.; High affinity at 10X or 20X or both PRE concentrations in at least one cell line in the cell extract assay; High affinity in purified isoform assay; conditions: Cell extract; PRE at 10X, 20X antibody concentration; Table 20
Description: as §1, §2, §3

PKC-βI = PKC-βI (Homo sapiens, UniProt P05771); test: as above; set-up: cytoplasmic extracts from different cell lines expressing appropriate PKC isoforms; endogenous in cells; host or cells: H661, MDAMB231, LS180, T24; key to Affinity for PKC isoform βI: —: no detectable affinity; Low to very low affinity at 10X or 20X or both PRE concentrations in at least one cell line in the cell extract assay; Low affinity in purified isoform assay.; Moderate affinity at 10X or 20X or both PRE concentrations in at least one cell line in the cell extract assay.; High affinity at 10X or 20X or both PRE concentrations in at least one cell line in the cell extract assay; High affinity in purified isoform assay; conditions: for Affinity for PKC isoform βI: Cell extract, PRE at 10X, 20X antibody concentration, Table 20
Description: as §1, §2, §3

PKC-α = test: Binding of PREs to PKC-α in V5E-transfected IMR-32 cells and effect on cell morphology; type: cell-based, human; conditions: V5E-transfected IMR-32 cells; for Relative Fluorescence Intensity (mean): PRE by pinocytic endocytosis, transfected + reagent control 113
Description: Neuroblastoma cells from the IMR-32 cell line were stably transfected with a vector containing the V5E sequence of PKC-α as outlined above in Example 13. The V5E sequence is part of the antigenic amino acid sequence that is used to raise the commercially available anti-PKC-α isoform-specific antibody.
The peptides PRE 1, 2, 3, 4, 5, 6, 7, 8, 9, 10, 11, 12 and 13 (see Table 3) were incorporated into the transfected IMR-32 cells via pinocytic endocytosis (Molecular Probes) according to the supplier's recommendations. Following fixation and permeabilization, PKC-α was detected using an Alexa fluor secondary antibody (as described above in Example 8).
Results: The expressed V5E fragment adds to the decoration of PKC-α in the transfected IMR-32 cells since it is recognized by the same antibody (compare FIGS. 20A and 20B).

PKC-βI, sequence (P05771 2-671): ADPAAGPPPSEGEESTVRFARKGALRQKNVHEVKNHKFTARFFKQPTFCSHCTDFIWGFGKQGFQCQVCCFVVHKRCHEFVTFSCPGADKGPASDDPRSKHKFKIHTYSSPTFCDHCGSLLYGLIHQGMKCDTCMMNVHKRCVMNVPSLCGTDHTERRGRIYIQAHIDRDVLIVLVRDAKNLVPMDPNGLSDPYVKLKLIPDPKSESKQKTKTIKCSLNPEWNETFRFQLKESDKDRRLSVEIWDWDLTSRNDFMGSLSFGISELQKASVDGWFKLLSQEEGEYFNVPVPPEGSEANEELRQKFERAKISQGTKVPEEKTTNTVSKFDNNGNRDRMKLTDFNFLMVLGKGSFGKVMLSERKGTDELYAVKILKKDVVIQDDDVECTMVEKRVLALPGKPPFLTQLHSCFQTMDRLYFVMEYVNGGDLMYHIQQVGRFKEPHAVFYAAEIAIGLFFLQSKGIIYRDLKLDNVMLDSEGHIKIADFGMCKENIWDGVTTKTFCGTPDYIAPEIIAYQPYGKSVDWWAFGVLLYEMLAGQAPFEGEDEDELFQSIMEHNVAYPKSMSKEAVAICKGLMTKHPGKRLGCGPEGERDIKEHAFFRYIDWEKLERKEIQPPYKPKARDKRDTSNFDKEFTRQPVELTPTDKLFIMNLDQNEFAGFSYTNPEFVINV

Affinity for PKC isoform ζ (PKC-ζ)	Affinity for PKC isoform βI (PKC-βI)	affinity for PKC-βI (PKC-βI; cell extracts)	Substance	Affinity for PKC isoform βII (PKC-βII)	effect on cell morphology (PKC-α)	effect on karyokinesis (PKC-α)	PKC-α label (PKC-α)	Relative Fluorescence Intensity (mean) (PKC-α)
M/H	—		Ac-KDAQNLI-NH2 [PRE 12]	L	little effect on the cell morphology			
M/L	M		Ac-ISIGILNQADK-NH2 [PRE 10]	—		aborted karyokinesis		
—	H		Ac-KDANQLIGISI-NH2 [PRE 6]			aborted karyokinesis		
L	H		RRKKGGKDFVVKR [PRE 1]		many dividing cells and abnormal morphology			
—	—		Ac-ISIGILQNADK-NH2 [PRE 7]					
—	H	good affinity for PKC-βI	Ac-KDAQNLIGISI-NH2 [PRE 4, Ac-KDAQNLIGISI-NH2]	L	morphological changes with enlarged cells		decreased label	79
			ILEDKGGDAQNLIGISI [PRE 8]	H				
—	H		Ac-RDAQNLIGISI-NH2 [PRE 11]		apoptotis			
L/H	H		Ac-AKGIQEVKGGKDAQNLIGISI-NH2 [PRE 5]	H	poor morphology	aborted karyokinesis		124
—	L		Ac-AKGIQEVKGGDAQNLIGISI-NH2 [PRE 3]	L			more intense perinuclear decoration	83
M/L	M		Ac-isigilgnadk-NH2 [PRE 9]	—			strong perinuclear label	121
—	—		Ac-RDAQNLI-NH2 [PRE 13]		little effect on the cell morphology			116
